Experimental data: patent US6211373A, “Phenyl urea antagonists of the IL-8 receptor” (SmithKline Beecham Corporation, priority 1998, dated 2001)

Target: T1, recombinant human IL-8 type b receptor (IL-8 Rb, Type II, permissive receptor) (Homo sapiens, UniProt P25025)
T1 construct: membranes
T1 sequence (P25025 1-360): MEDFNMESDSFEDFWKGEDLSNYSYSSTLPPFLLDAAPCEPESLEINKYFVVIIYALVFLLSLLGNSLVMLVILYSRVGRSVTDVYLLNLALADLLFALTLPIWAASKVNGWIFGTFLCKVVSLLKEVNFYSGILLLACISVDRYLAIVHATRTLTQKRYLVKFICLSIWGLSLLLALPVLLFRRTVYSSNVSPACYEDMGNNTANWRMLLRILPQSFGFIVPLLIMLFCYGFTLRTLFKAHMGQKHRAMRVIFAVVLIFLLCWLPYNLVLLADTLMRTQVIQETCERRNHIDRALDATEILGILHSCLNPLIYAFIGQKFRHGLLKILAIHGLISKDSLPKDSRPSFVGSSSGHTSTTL
Test: Receptor binding assay, [125I] IL-8, permissive model
Text: [^125 I] IL-8 (human recombinant) was obtained from Amersham Corp., Arlington Heights, Ill., with specific activity 2000 Ci/mmol. Gro-a was obtained from NEN-New England Nuclear. All other chemicals were of analytical grade. High levels of recombinant human IL-8 type a and b receptors were individually expressed in Chinese hamster ovary cells as described previously (Holmes, et al., Science, 1991, 253, 1278). The Chinese hamster ovary membranes were homogenized according to a previously described protocol (Haour, et al., J Biol Chem., 249 pp 2195-2205 (1974)). Except that the homogenization buffer was changed to 10 mM Tris-HCL, 1 mM MgSO4, 0.5 mM EDTA (ethylene-diaminetetra-acetic acid), 1 mMPMSF (a-toluenesulphonyl fluoride), 0.5 mg/L Leupeptin, pH 7.5. Membrane protein concentration was determined using Pierce Co. micro-assay kit using bovine serum albumin as a standard. All assays were performed in a 96-well micro plate format. Each reaction mixture contained ^125 I IL-8 (0.25 nM) or ^125 I Gro-a and 0.5 μg/mL of IL-8Ra or 1.0 μg/mL of IL-8Rb membranes in 20 mM Bis-Trispropane and 0.4 mM Tris HCl buffers, pH 8.0, containing 1.2 mM MgSO4, 0.1 mM EDTA, 25 mM NaCl and 0.03% CHAPS. […] The filter was then dried and counted on the Betaplate liquid scintillation counter. […]

Compound: Cc1cc(Cl)ccc1NC(=O)Nc1ccccc1C(=O)O [1-(2-Carboxyphenyl)-3-(4-chloro-2-methylphenyl)urea]
- level at which found to be active (IL-8 receptor inhibition): about 75 μg/mL
